{
  "source": "paper PMC4405350",
  "about": "“From Broad-Spectrum Biocides to Quorum Sensing Disruptors and Mussel Repellents: Antifouling Profile of Alkyl Triphenylphosphonium Salts” (PLoS ONE, 2015)",
  "system": "Mushroom tyrosinase",
  "experiment": "Tyrosinase fluorescence quenching (fluorescence spectroscopy)",
  "format": "binding, Agaricus bisporus",
  "conditions": "280 nm excitation, 0–30 μM quencher",
  "experimental": "Fluorescence measurements of tyrosinase solutions were performed using an Edinburgh Instruments LifeSpec II fluorescence spectrometer, exciting the complexes at 280 nm with an Edinburgh Instruments EPLED-280 subnanosecond pulsed diode source (typically pulse width at half maximum around 860 ps, repetition rate 10 MHz) and using Edinburg Instruments F900 acquisition software. A multichannel plate photomultiplier was used as the detector using single photon counting technique. Lifetime estimation was made using instrument response function (IRF) reconvolution analysis with FAST software by Edinburgh Instruments, providing a temporal resolution around 0.2 ns. A blank medium without enzyme was used to confirm that the collected fluorescence comes from the enzyme molecules and any influence of the fluorescence of the quencher and buffer components on the enzyme fluorescence is negligible. […]\nFluorescence of enzymes is very sensitive to conformational changes of the protein structure. The interaction of tyrosinase inhibitors can be evaluated by the analysis of the intrinsic tyrosinase fluorescence when tyrosinase and inhibitor (quencher) molecules are mixed in a solution. In particular, we have evaluated the effect of the tyrosinase inhibitor 16. Quenching of tyrosinase fluorescence is expected as a consequence of conformational alterations induced by the quencher. […]",
  "data": [
    {"compound": "CCCCCCCCCCCCCCCC[P+](c1ccccc1)(c1ccccc1)c1ccccc1", "note": "[Compound 16]", "values": [
      {"measurement": "Stern-Volmer quenching constant KSV", "result": "about 4490 M^-1"}
    ]}
  ]
}
